Results as given in US9012459B2, “Monohydrate crystalline form of 3-(5-(4-(3-fluoropropyl)-piperazin-1-yl)benzimidazol-2-yl)-1-azaazulen-2-one, preparation, and pharmaceutical composition thereof” (Industrial Technology Research Institute, priority 2012, dated 2015).
Read-outs that look alike come from different tables or passages of the source.

Columns and labels:
[1] = hygroscopicity test (weight gain); format: physicochemical; conditions: for Weight gain (%): 1 day, temperature 22.5/21.8 ° C., relative humidity 70/71 %; for hygroscopicity: Hydroscopicity test
Protocol: The monohydrate form of Formula I (300 mg) was dissolved at room temperature in the mix solution of CH2Cl2 (50 mL) and methanol (50 mL). Na2SO4 (10 g) was then added into the solution to absorb water with stir for 2 hours.

[2] = stability test (XRPD and HPLC over time); format: physicochemical; conditions: about 25-30° C. and 40%-45% RH; after preparation, one, two and four months
Protocol: An appropriate amount of samples were prepared according to the method of Example 1. A XPRD analysis and a HPLC analysis were performed, under the environment of about 25-30° C. and 40%-45% RH, after the preparation of the samples (FIGS. 7a and 8a), and after one month (FIGS. 7b and 8b), two months (FIGS. 7c and 8c), and four months (FIGS. 7d and 8d) respectively from the time of preparation, and the results were examined to observe their differences over time.

[3] = pharmacokinetics profile and bioavailability, PO dosing; format: in vivo; conditions: PO 30 mg/kg, male SD rat; monohydrate in capsule and in 0.5% methyl cellulose suspension, sample #4 in 0.5% methyl cellulose
Protocol: The pharmacokinetics profile and the bioavailability were tested by a PO (per os) dosing with 30 mg/kg of sample of Example 1 (monohydrate), good in capsule (Tropac, 9el) and in bottle (0.5% methyl cellulose suspension) for male SD rat; and also a PO dosing with 30 mg/kg of sample #4 (mixed crystalline form) in 0.5% methyl cellulose for male SD rat as a treatment control. With the result from the above testing, the preferable PO dosing for first in human model was determined.
Generally, the PK profile of the crystalline form with good crystallinity and stability would be worse than that of amorphous form and complex form.
The terms used in FIG. 10 were listed as follows, PO (per os) represents taken by mouth; Cmax (ng/mL) represents the peak plasma concentration of a drug after administration; Tmax (hr) represents the time to reach Cmax; T1/2 (hr) represents elimination half-life, which represents the time required for the concentration of the drug to reach half of its original value; and AUC (hr*ng/mL) [area under the curve] represents the integral of the concentration-time curve (after a single dose or in steady state), and the bioavailability could be deducted from AUC values.

[4] = stability examination by slurry test (XRPD); format: physicochemical; conditions: stirred at 25° C. for 3 days in ethyl acetate, heptanes or isopropanol
Protocol: 1. Formula I-EA: the monohydrate form of Formula I (57 mg) and Ethyl acetate (1 mL) was provided.
2. Formula I-Heptane: the monohydrate form of Formula I (51 mg) and Heptanes (1 mL) was provided: […]
3. Formula I-IPA: the monohydrate form of Formula I (53 mg) and 1 mL of Isopropanol (1 mL) was provided.
The solutions provided above were stirred at 25° C. for 3 days and then a centrifugation was performed to collect the solid with centrifuge in each. Each of the collected solids was dried and analyzed using XPRD. […] This is a pre-test for the subsequent formulation, which is aimed to confirm that the monohydrate form wouldn't change with the incorporation of solvents. Therefore, the solvents used herein may not be the same as those crystallized solvents used in the embodiments.

[5] = solubility in different pH buffer solutions (HPLC); format: physicochemical; conditions: buffer solution, thermodynamic from solid, read-out: Concentration (solubility)

| Weight gain (%) [1] [%] | hygroscopicity [1] [%] | PK profile (Cmax, Tmax, T1/2, AUC) compared between the 3 treatments [3] | crystalline form stability in slurry (XRPD vs original form) [4] | solubility at 24 h ([5]; pH 1.2, simulated gastric fluid, buffer pH1.2, 300 rpm) [µg/mL] | solubility at 24 h ([5]; pH 5, aqueous buffer, buffer pH5, 300 rpm) [µg/mL] | solubility at 24 h ([5]; pH 6.8, aqueous buffer, buffer pH6.8, 300 rpm) [µg/mL] | solubility at 24 h ([5]; pH 7.4, aqueous buffer, buffer pH7.4, 300 rpm) [µg/mL] | SMILES | stability (XRPD and HPLC differences over time) [2] |
| --- | --- | --- | --- | --- | --- | --- | --- | --- | --- |
| 3.81 | 3.81 | – | – | – | – | – | – | O=c1[nH]c2cccccc-2c1-c1nc2ccc(N3CCN(CCCF)CC3)cc2[nH]1 [anhydrate form, 3-(5-(4-(3-fluoropropyl)piperazin-1-yl)benzimidazol-2-yl)-1-azaazulen-2-one] | – |
| 1.57 | 1.57 | no statistically significant difference | stable | 26300 | 263 | 3.7 | 2.4 | O=c1[nH]c2cccccc-2c1-c1nc2ccc(N3CCN(CCCF)CC3)cc2[nH]1 [monohydrate form of Formula I, 3-(5-(4-(3-fluoropropyl)piperazin-1-yl)benzimidazol-2-yl)-1-azaazulen-2-one] | stable and substantially the same over four months |
